These results are taken from patent US20250122208A1, “CHEMOKINE RECEPTOR MODULATORS AND USES THEREOF” (RAPT THERAPEUTICS, INC., priority 2023, published 2025).

The structures appear in SMILES notation.

The assay addresses T1, CCR4 receptor (Homo sapiens, UniProt P51679).
T1 construct: beta-galactosidase enzyme-fragment tag; From own knowledge, PathHunter uses a ProLink/enzyme-donor fragment, usually at the receptor's C-terminus; expressed in transfected cells; host or cells: CHO-K1
T1 sequence (P51679 1-360): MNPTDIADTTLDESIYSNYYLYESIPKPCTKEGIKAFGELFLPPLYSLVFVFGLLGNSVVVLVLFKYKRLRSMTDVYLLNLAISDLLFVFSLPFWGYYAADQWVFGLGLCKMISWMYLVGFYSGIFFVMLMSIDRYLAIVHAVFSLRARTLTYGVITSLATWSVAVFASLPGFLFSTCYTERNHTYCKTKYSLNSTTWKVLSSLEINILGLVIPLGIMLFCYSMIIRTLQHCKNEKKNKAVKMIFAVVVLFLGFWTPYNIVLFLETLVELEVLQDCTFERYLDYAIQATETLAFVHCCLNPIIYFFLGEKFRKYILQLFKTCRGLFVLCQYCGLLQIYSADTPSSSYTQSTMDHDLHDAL
The experiment in a line: CCR4 antagonist activity in Beta-Arrestin Cellular Assay (PathHunter, CCL22 challenge). The assay is classed as cell-based. As to conditions: CHO-K1 cells expressing the CCR4 receptor; CCL22 at EC80 (15 nM), 90 minutes; 30 min pre-incubation; read-out: Potency (CCR4 antagonist IC50 in the β-arrestin assay). How it is done:
Example 39. Determination of CCR4 antagonist activity in Beta-Arrestin Cellular Assay
CCR4 Antagonistic Activity was assessed in Beta-Arrestin Cellular Assay. Compounds were assessed in CHO-K1 cells expressing the CCR4 receptor modified to enable β-glactosidase detection of β-arrestin agonist activity stimulated by CCL22 in a chemiluminescence assay. Cells were seeded in a total volume of 20 μL into white walled, 384-well microplates and incubated at 37° C. prior to testing. Cells were pre-incubated with test compound for 30 min at 37° C. followed by agonist challenge with CCL22 at the EC80 concentration (15 nM) for 90 minutes. Assay signal was generated through a single addition of 12.5 or 15 μL ([…]) of PathHunter Detection reagent cocktail, followed by a one-hour incubation at room temperature. Microplates were read following signal generation with a PerkinElmer Envision™ instrument for chemiluminescent signal detection. Antagonist activity was analyzed using CBIS data analysis suite (ChemInnovation, CA). Antagonist activity was characterized as percentage inhibition calculated using the following formula:
An IC50 of >500 nM is designated as Potency C, an IC50 of between 500 nM and 100 nM is designated as Potency B and an IC50 of <100 nM is designated as Potency A.
On to `C[C@@H](Nc1cc(N2CCC([C@H]3CCCN([C@H]4C[C@](C)(C(=O)O)C4)C3)CC2)nc2ccnn12)c1ccc(Cl)cc1F` [Example 38, (1R,3r)-3-((R)-1′-(7-(((R)-1-(4-chloro-2-fluorophenyl)ethyl)amino)pyrazolo[1,5-a]pyrimidin-5-yl)-[3,4′-bipiperidin]-1-yl)-1-methylcyclobutane-1-carboxylic acid], for which the IC50 was less than 0.1 µM.
Turning to `C[C@@H](Nc1cc(N2CCC(C3CCCN(CCO)C3)C2)nc2ncnn12)c1ccc(Cl)cc1Cl` (single isomer, unassigned) [Example 23b], the IC50 is less than 0.1 µM.
With `C[C@@H](Nc1cc(N2CCC([C@H]3CCCN([C@H]4C[C@](C)(C(=O)O)C4)C3)CC2)nc2nccn12)c1ccc(Cl)cc1Cl` [Example 36, (1R,3r)-3-((R)-1′-(5-(((R)-1-(2,4-dichlorophenyl)ethyl)amino)imidazo[1,2-a]pyrimidin-7-yl)-[3,4′-bipiperidin]-1-yl)-1-methylcyclobutane-1-carboxylic acid] the figure was less than 0.1 µM; with `C[C@@H](Nc1cc(N2CCC([C@H]3CCCN([C@H]4C[C@](C)(C(=O)O)C4)C3)CC2)nc2ncnn12)c1ccc(Cl)cc1F` [Example 37, (1R,3r)-3-((R)-1′-(7-(((R)-1-(4-chloro-2-fluorophenyl)ethyl)amino)-[1,2,4]triazolo[1,5-a]pyrimidin-5-yl)-[3,4′-bipiperidin]-1-yl)-1-methylcyclobutane-1-carboxylic acid], less than 0.1 µM; with `C[C@@H](Nc1cc(N2CCC([C@H]3CCCN([C@H]4C[C@](C)(C(=O)O)C4)C3)CC2)nc2nccn12)c1ccc(Cl)cc1F` [Example 27, (1R,3r)-3-((R)-1′-(5-(((R)-1-(4-chloro-2-fluorophenyl)ethyl)amino)imidazo[1,2-a]pyrimidin-7-yl)-[3,4′-bipiperidin]-1-yl)-1-methylcyclobutane-1-carboxylic acid], less than 0.1 µM.
With `C[C@@H](Nc1cc(N2CCC([C@H]3CCCN(CCC(=O)O)C3)CC2)nc2ncnn12)c1ccc(Cl)cc1Cl` [Example 14, 3-((R)-1′-(7-(((R)-1-(2,4-dichlorophenyl)ethyl)amino)-[1,2,4]triazolo[1,5-a]pyrimidin-5-yl)-[3,4′-bipiperidin]-1-yl)propanoic acid] the figure was less than 0.1 µM; with `C[C@@H](Nc1cc(N2CCC([C@H]3CCCN(CCCO)C3)CC2)nc2ncnn12)c1ccc(Cl)cc1Cl` [Example 22, 3-((R)-1′-(7-(((R)-1-(2,4-dichlorophenyl)ethyl)amino)-[1,2,4]triazolo[1,5-a]pyrimidin-5-yl)-[3,4′-bipiperidin]-1-yl)propan-1-ol], less than 0.1 µM.
With `C[C@@H](Nc1cc(N2CCC([C@H]3CCCN([C@H]4C[C@](C)(C(=O)O)C4)C3)CC2)nc2ncnn12)c1ccc(Cl)cc1Cl` [Example 18, (1R,3r)-3-((R)-1′-(7-(((R)-1-(2,4-dichlorophenyl)ethyl)amino)-[1,2,4]triazolo[1,5-a]pyrimidin-5-yl)-[3,4′-bipiperidin]-1-yl)-1-methylcyclobutane-1-carboxylic acid] the figure was 0.1 to 0.5 µM; with `C[C@@H](Nc1cc(N2CCC([C@H]3CCCN(C4CCOCC4)C3)CC2)nc2ncnn12)c1ccc(Cl)cc1Cl` [Example 6, N-((R)-1-(2,4-dichlorophenyl)ethyl)-5-((R)-1-(tetrahydro-2H-pyran-4-yl)-[3,4′-bipiperidin]-1′-yl)-[1,2,4]triazolo[1,5-a]pyrimidin-7-amine], less than 0.1 µM; with `CNS(=O)(=O)CCCN1CCC[C@H](C2CCN(c3cc(N[C@H](C)c4ccc(Cl)cc4Cl)n4ncnc4n3)CC2)C1` [Example 20, 3-((R)-1′-(7-(((R)-1-(2,4-dichlorophenyl)ethyl)amino)-[1,2,4]triazolo[1,5-a]pyrimidin-5-yl)-[3,4′-bipiperidin]-1-yl)-N-methylpropane-1-sulfonamide], less than 0.1 µM.
With `C[C@@H](Nc1cc(N2CCC([C@H]3CCCN(CCS(N)(=O)=O)C3)CC2)nc2ncnn12)c1ccc(Cl)cc1Cl` [Example 19, 2-((R)-1′-(7-(((R)-1-(2,4-dichlorophenyl)ethyl)amino)-[1,2,4]triazolo[1,5-a]pyrimidin-5-yl)-[3,4′-bipiperidin]-1-yl)ethane-1-sulfonamide], the IC50 was less than 0.1 µM.
With `C[C@@H](Nc1cc(N2CCC([C@H]3CCCN([C@H]4C[C@](C)(C(=O)O)C4)C3)CC2)nc2ncnn12)c1ccc(F)cc1F` [Example 35, (1R,3r)-3-((R)-1′-(7-(((R)-1-(2,4-difluorophenyl)ethyl)amino)-[1,2,4]triazolo[1,5-a]pyrimidin-5-yl)-[3,4′-bipiperidin]-1-yl)-1-methylcyclobutane-1-carboxylic acid] the figure was 0.1 to 0.5 µM; with `C[C@@H](Nc1cc(N2CCC([C@H]3CCCN([C@H]4C[C@](C)(C(=O)O)C4)C3)CC2)nc2ncnn12)c1ccc(F)cc1Cl` [Example 26, (1R,3r)-3-((R)-1′-(7-(((R)-1-(2-chloro-4-fluorophenyl)ethyl)amino)-[1,2,4]triazolo[1,5-a]pyrimidin-5-yl)-[3,4′-bipiperidin]-1-yl)-1-methylcyclobutane-1-carboxylic acid], less than 0.1 µM.
With `CC(=O)NCCN1CCC[C@H](C2CCN(c3cc(N[C@H](C)c4ccc(Cl)cc4Cl)n4ncnc4n3)CC2)C1` [Example 13, N-(2-((R)-1′-(7-(((R)-1-(2,4-dichlorophenyl)ethyl)amino)-[1,2,4]triazolo[1,5-a]pyrimidin-5-yl)-[3,4′-bipiperidin]-1-yl)ethyl)acetamide] the figure was less than 0.1 µM; with `C[C@@H](Nc1cc(N2CCC([C@H]3CCCN(C4CC(S(C)(=O)=O)C4)C3)CC2)nc2ncnn12)c1ccc(Cl)cc1Cl` (mixture of isomers) [Example 21, N-((R)-1-(2,4-dichlorophenyl)ethyl)-5-((R)-1-(3-(methylsulfonyl)cyclobutyl)-[3,4′-bipiperidin]-1′-yl)-[1,2,4]triazolo[1,5-a]pyrimidin-7-amine], less than 0.1 µM; with `CC(CN1CCC[C@H](C2CCN(c3cc(N[C@H](C)c4ccc(Cl)cc4Cl)n4ncnc4n3)CC2)C1)C(=O)O` (mixture of isomers) [Example 15, 3-((R)-1′-(7-(((R)-1-(2,4-dichlorophenyl)ethyl)amino)-[1,2,4]triazolo[1,5-a]pyrimidin-5-yl)-[3,4′-bipiperidin]-1-yl)-2-methylpropanoic acid], less than 0.1 µM.
With `COCCN1CCC[C@H](C2CCN(c3cc(N[C@H](C)c4ccc(Cl)cc4Cl)n4ncnc4n3)CC2)C1` [Example 11, N-((R)-1-(2,4-dichlorophenyl)ethyl)-5-((R)-1-(2-methoxyethyl)-[3,4′-bipiperidin]-1′-yl)-[1,2,4]triazolo[1,5-a]pyrimidin-7-amine] the figure was less than 0.1 µM.
